Test results: publication PMC8296708, “The pan HDAC inhibitor Givinostat improves muscle function and histological parameters in two Duchenne muscular dystrophy murine models expressing different haplotypes of the LTBP4 gene” (Skeletal Muscle, 2021)

Legend:
plasma miRNA of mdx mice = assay: Whole-genome plasma miRNA expression profiling (small RNA sequencing) in mdx mice; format: in vivo, mouse (C57BL/10ScSn-Dmd^mdx/J); details: Givinostat 37.5 mg/kg vs vehicle
Experimental: Blood samples were taken from the retro-orbital plexus of mice maintained under isoflurane anesthesia. Blood was placed in tubes containing 50 μL (for 1 mL of total blood) of EDTA ([…]) and then it was centrifuged at 13,300 rpm at + 4 °C for 10 min. Plasma was separated (400–500 μL) and immediately frozen in dry ice and stored at − 80 °C until analysis.
Thirteen mouse plasma samples (naive wt, n = 3; naive mdx, n = 3; vehicle, n = 4; Givinostat 37.5 mg/kg, n = 3) were delivered to Biogazelle in dry ice.
RNA was isolated using the miRNeasy Serum/Plasma Kit (Qiagen) following the manufacturer’s instructions.
Libraries for small RNA sequencing were prepared using the NEBNext small RNA library prep kit (New England Biolabs) according to the manufacturer’s instructions. […] Finally, the resulting small RNA pools were concentrated via ethanol precipitation and quantified using the Qubit 2.0 fluorometer (Thermo Fisher Scientific) prior to sequencing with read length of 75 bp on a NextSeq 500 sequencer (Illumina).
Sequencing reads were filtered based on stringent read quality control. After adapter trimming with Trimmomatic, reads were collapsed and mapped to the reference genome (GRCm38) using Bowtie. Reads up to 25 nucleotides are mapped with no mismatches, while longer reads (mainly from RNA species other than miRNAs) are mapped allowing a maximum of 2 mismatches. […]

Body weight of mdx mice = format: in vivo, mouse (C57BL/10ScSn-Dmd^mdx/J)
Experimental: In the efficacy studies, Givinostat powder (ITF2357) was suspended in 0.5% methylcellulose (Sigma-Aldrich) and administered p.o. (by gavage) at the doses of 0.1, 0.3, 1, 5, 10, 25, and 37.5 mg/kg qdx5x15weeks (administration volume per mouse: 10 mL/kg) in mdx mice (see Additional Figure 1A). Vehicle-treated mdx mice received 0.5% methylcellulose suspension. Givinostat suspension was stored at + 4 °C, and it was freshly prepared every 7 days. Probably due to the impairment of their tongue and masticatory muscles, the oral gavage procedure turned out to be difficult to perform, and chronic treatment of D2.B10 mice by this route was considered to bear a high risk of damaging the esophagus. For this reason, Givinostat was administered in the drinking water. […] Water consumption was weekly monitored throughout the entire duration of the study weighing the bottle of each cage (maximum 4 mice per cage). […] All mice were monitored daily and tolerability was evaluated on the basis of BW and clinical signs.
In both efficacy studies, the effectiveness of treatments was evaluated every week by measuring the forelimb strength by a grip strength meter (Ugo Basile SRL, Italy). BW of mdx (see Additional Figure 2) and D2.B10 mice (see Additional Figure 3) was also measured in order to normalize the absolute grip strength of each mouse with respect to its BW. […]

CCN(CC)Cc1ccc2cc(COC(=O)Nc3ccc(C(=O)NO)cc3)ccc2c1 [Givinostat]
miR-92b-3p in plasma, FC (plasma miRNA of mdx mice; T16, significant upregulation): 2.130 | miR-449a-5p in plasma, FC (plasma miRNA of mdx mice; T16, significantly upregulated): 4.388 | Body weight (Body weight of mdx mice; 25 mg/kg, day 105 (vehicle 37.2 ± 0.8, p < 0.01)): 32.9 ± 0.9 g | Body weight (Body weight of mdx mice; 37.5 mg/kg, day 105 (vehicle 37.2 ± 0.8, p < 0.05)): 33.1 ± 0.9 g
